Assays:
[1] = test system: overall viable bacteria count; assay: Bactericidal effect on green onions, overall viable bacteria count; format: cell-based; settings: green onion, immersion 30 minutes
[2] = ORP (oxidation-reduction potential) of mixtures versus sodium hypochlorite solution of the same concentration; format: physicochemical; settings: for ORP: Only solution
E. coli group = assay: Bactericidal effect on green onions, E. coli group count; format: cell-based; settings: green onion, immersion 30 minutes

ORP ([2]; 200 ppm): 554 mV
ORP ([2]; 1000 ppm): 560 mV
ORP ([2]; Undiluted solution (6%)): 560 mV
ORP (oxidation-reduction potential) / oxidizing power upon dilution ([2]; diluted): no change
Structure (SMILES): OCl [sodium hypochlorite]
Overall viable bacteria count ([1]; 200 ppm, D + 0): 5.00 log CFU
Overall viable bacteria count ([1]; 200 ppm, D + 1): 5.72 log CFU
Overall viable bacteria count ([1]; 1000 ppm, D + 0): 3.57 log CFU
Overall viable bacteria count ([1]; 1000 ppm, D + 1): 5.61 log CFU
E. coli group count (E. coli group; 200 ppm, D + 3): 5.66 log CFU
E. coli group count (E. coli group; 1000 ppm, D + 2): 2.64 log CFU
E. coli group count (E. coli group; 1000 ppm, D + 3): 4.73 log CFU

Source: US20250033966A1, “MANUFACTURING METHOD FOR OBTAINING NOVEL CHLORINE OXIDE COMPOSITION FROM DEGRADED HYPOCHLORITE” (HONBUSANKEI CO., LTD., priority 2018, published 2025)
